Laboratory results reported in patent US11197885B2, “Collagen enhancing agent made from low acyl gellan gum, methods of making and methods of using the same” (The University of Toledo, priority 2015, dated 2021).

Columns and labels:
FGFR1 = FGFR1 (Mus musculus, UniProt P16092); assay: affinity chromatography with midi-GAGR-conjugated sepharose beads, FGFR1 immunoblotting; type: binding; design: Whole mouse brains were homogenized for cytosol extraction in PMEE buffer containing 1% Igepal CA-630; from tissue; host or cells: mouse brain (cerebral cortex / whole brain) detergent extract; details: 0.5% Igepal CA-630 PMEE buffer
Experimental: To examine whether midi-GAGR interacts with synaptosomal FGFR1 or not, an affinity chromatography using midi-GAGR-conjugated sepharose beads was performed. Either midi-GAGR or dextran were conjugated to epoxy-activated sepharose 6B that is a pre-activated medium that can be conjugated to the hydroxyl groups of carbohydrates. Briefly, 200 μL of 7.4 mM midi-GAGR or 5 kD dextran in H2O was mixed with 200 μL of epoxy-activated sepharose beads in a microtube and incubated on a rotator (16 h, 37° C.). The mixture was spun down at 1,000×g (10 min) to separate bead-bound polysaccharides from unbound. Unoccupied active sites on beads were blocked by incubation (4 h, 45° C.) in 1 M ethanolamine (pH 8). Then, beads were washed with three cycles of alternating pH solutions—0.1 M acetate buffer (pH 4) and 0.1 M Tris-HCl buffer (pH 8), both containing 0.5 M NaCl. The conjugation of polysaccharides to beads was confirmed by phenol-sulfuric acid colorimetry. Cerebral cortices were dissected from four female mice (BALB/C, 8 wks old) and homogenized with a hand grinder in 1 mL of PMEE homogenization buffer plus 1% Igepal CA-630 and protease inhibitors (PIs). The homogenate was centrifuged at 1,000×g (10 min) to remove nuclei and undisrupted cells. The supernatant was subjected to 5-6 strokes through 27G needle. Post-nuclear supernatant was centrifuged at 1,000×g (15 min). […]

[1] = test system: differentiated dopaminergic PC12 cells exposed to 30 μM 6-OHDA; assay: LIVE/DEAD viability of differentiated PC12 cells exposed to 6-OHDA; type: cell-based; details: 1 μM for 6 h, then 30 μM 6-OHDA for 24 h
Experimental: Differentiated dopaminergic PC12 cells and primary mouse embryonic cortical neurons (E17, DIV14) were treated with mock (H2O) or 1 μM of dextran, alginate, HA-GAGR, or midi-GAGR for 6 h and insulated by oxidative stressors (30 μM 6-OHDA [PC12] and 10 μM amyloid β peptide [cortical neurons]) for 24 h.

[2] = test system: primary mouse cortical neurons (E17, DIV4); assay: neurite outgrowth in primary mouse cortical neurons; type: cell-based; details: 2 days; midi-GAGR, dextran, alginate 1 μM; LA-GAGR 0.1 μM; HA-GAGR 0.01 μM
Experimental: To analyze the effect of polysaccharides on neurite outgrowth, primary mouse cortical neurons were treated with vehicle (H2O) or 1 μM of dextran, alginate, or midi-GAGR, 0.01 μM of HA-GAGR, or 0.1 μM of LA-GAGR for 2 days prior to immunocytochemistry using anti-α-tubulin antibody and secondary Alexa488nm antibody. An etched grid coverslip containing 200 numbered boxes was used to select neurons objectively for image acquisition and analysis. A total of 24 boxes were randomly selected per treatment group. All the neurons having total neurite length longer than 4 times of the diameter of neuron cell body were chosen for image analysis. The total length of the neurites of each neuron was measured using Metamorph and used to calculate average total neurite length. To examine the effect of polysaccharides on the phosphorylation (activation) of nuclear CREB, neurons were stained with anti-pCREB antibody (Abcam & Santa Cruz biotechnologies, 2nd antibody with Alexa568nm), anti-α-tubulin antibody (Sigma, 2nd antibody with Alexa488nm), and DAPI (Sigma) after two-day incubation with vehicle (H2O) or 1 μM of dextran, alginate, or midi-GAGR, 0.01 μM of HA-GAGR, or 0.1 μM of LA-GAGR. […] The images of neurons on coverslips were taken by confocal microscopy at the same gain (850), offset (−0.01), and exposure time (2 sec). The intensity of the staining of nuclear pCREB was measured using Metamorph and used to calculate average intensity. In addition, the phosphorylation of CREB in the cytosols of mouse cortical neurons treated with polysaccharides were detected by immunoblotting. Primary mouse neurons were dissected from 16 mouse embryos (E17) and plated in the wells of 6-well plates (1×10^6 cells/well), differentiated for 6 days, and treated with polysaccharides for 48 h. […] The protein bands on blots recognized by anti-pCREB (Santa Cruz Biotechnologies) and anti-CREB antibodies were detected on Amersham Hyperfilm™ ECL films (GE Healthcare Life Science) using SuperSignal® West Pico Chemiluminescent Substrate (Thermo Scientific).

Sequence of FGFR1 (P16092 22-822): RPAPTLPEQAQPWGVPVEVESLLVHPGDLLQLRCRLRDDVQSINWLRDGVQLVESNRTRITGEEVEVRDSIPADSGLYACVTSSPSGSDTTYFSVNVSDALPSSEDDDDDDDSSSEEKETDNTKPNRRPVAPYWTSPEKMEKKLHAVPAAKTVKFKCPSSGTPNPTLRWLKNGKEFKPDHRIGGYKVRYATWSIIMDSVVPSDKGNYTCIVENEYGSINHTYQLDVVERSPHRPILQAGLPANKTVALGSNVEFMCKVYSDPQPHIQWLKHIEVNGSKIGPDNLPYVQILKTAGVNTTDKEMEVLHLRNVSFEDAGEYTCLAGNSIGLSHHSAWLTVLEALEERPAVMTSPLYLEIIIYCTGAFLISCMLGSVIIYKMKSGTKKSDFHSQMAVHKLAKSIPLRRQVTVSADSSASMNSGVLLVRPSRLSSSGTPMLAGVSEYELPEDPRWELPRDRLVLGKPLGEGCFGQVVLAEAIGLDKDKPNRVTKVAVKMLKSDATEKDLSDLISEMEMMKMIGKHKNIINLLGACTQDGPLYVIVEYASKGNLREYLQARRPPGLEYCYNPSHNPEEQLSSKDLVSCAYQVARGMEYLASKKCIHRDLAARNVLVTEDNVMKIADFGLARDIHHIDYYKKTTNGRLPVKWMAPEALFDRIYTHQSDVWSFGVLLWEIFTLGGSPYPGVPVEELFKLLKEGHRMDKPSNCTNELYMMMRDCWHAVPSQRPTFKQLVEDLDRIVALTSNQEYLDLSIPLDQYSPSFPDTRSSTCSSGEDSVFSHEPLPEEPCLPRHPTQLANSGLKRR

## dextran
FGFR1
  FGFR1 pulled down from brain extract by polysaccharide-conjugated beads: not
[1]
  6-OHDA-induced cell death: did not
[2]
  fold change in average total neurite length vs vehicle: did not enhance neuritogenesis
